Data taken from ChEMBL document CHEMBL1147813, “Design, molecular modeling, synthesis, and anti-HIV-1 activity of new indolyl aryl sulfones. Novel derivatives of the indole-2-carboxamide” (J Med Chem, 2006).

Tested on: Human immunodeficiency virus 1
Experiment: Antiviral activity against HIV1
Format: functional, organism-based

EC50 [nM]	Compound
1	Cc1cc(C)cc(S(=O)(=O)c2c(C(=O)NNCCO)[nH]c3ccc(Cl)cc23)c1
1200	Cc1ccc(Sc2c(C(=O)NNCCO)[nH]c3ccc(Cl)cc23)c(C)c1
40	O=C(NCCO)c1[nH]c2ccc(Cl)cc2c1Sc1ccccc1
7	Cc1cccc(S(=O)(=O)c2c(C(=O)NNCCO)[nH]c3ccc(Cl)cc23)c1
8300	CCOC(=O)c1cc2cc(Cl)ccc2n1S(=O)(=O)c1cc(Cl)ccc1N
4960	Nc1ccccc1-n1ccc2ccccc21
> 200000	CCOC(=O)c1cc2cc(Cl)ccc2n1S(=O)(=O)c1ccc(Cl)cc1
31	Cc1ccccc1S(=O)(=O)c1c(C(=O)NCCO)[nH]c2ccc(Cl)cc12
100	Cc1ccccc1Sc1c(C(=O)NNCCO)[nH]c2ccc(Cl)cc12
5400	O=[N+]([O-])c1ccc(Cl)cc1-n1ccc2ccccc21
50	Cc1ccccc1Sc1c(C(=O)NCCO)[nH]c2ccc(Cl)cc12
> 42000	CCOC(=O)c1cn(S(=O)(=O)c2ccccc2)c2ccc(Cl)cc12
50	Cc1ccccc1S(=O)(=O)c1c(C(=O)NNCCO)[nH]c2ccc(Cl)cc12
6000	Nc1ccc(Cl)cc1-n1ccc2ccccc21
100	Cc1cccc(Sc2c(C(=O)NCCO)[nH]c3ccc(Cl)cc23)c1C
30	Cc1cc(C)cc(Sc2c(C(=O)NNCCO)[nH]c3ccc(Cl)cc23)c1
40	Cc1ccc(S(=O)(=O)c2c(C(=O)NNCCO)[nH]c3ccc(Cl)cc23)cc1
1	O=C(NCCO)c1[nH]c2ccc(Cl)cc2c1S(=O)(=O)c1ccccc1
66600	NC(=O)c1cc2cc(Cl)ccc2n1S(=O)(=O)c1ccccc1
3820	Nc1ccc(Cl)c(-n2ccc3ccccc32)c1
4130	Nc1cc(Cl)ccc1-n1ccc2ccccc21
12	Cc1cc(C)cc(Sc2c(C(=O)NCCO)[nH]c3ccc(Cl)cc23)c1
5300	O=[N+]([O-])c1ccccc1-n1ccc2ccccc21
> 200000	CCOC(=O)c1cc2cc(Cl)ccc2n1S(=O)(=O)c1ccccc1
200	O=C(NNCCO)c1[nH]c2ccc(Cl)cc2c1Sc1ccccc1
20	NC(=O)c1[nH]c2ccc(Cl)cc2c1Sc1ccccc1

EC50 [nM]	Compound
> 54000	CC(C)OC(=O)c1cn(S(=O)(=O)c2ccccc2)c2ccccc12
> 32000	CCOC(=O)c1cn(S(=O)(=O)c2ccccc2)c2ccccc12
300	NNC(=O)c1[nH]c2ccc(Cl)cc2c1S(=O)(=O)c1cc(Cl)ccc1N
300	NC(=O)c1[nH]c2ccccc2c1S(=O)(=O)c1cc(Cl)ccc1N
40	NC(=O)c1[nH]c2ccc(Cl)cc2c1S(=O)(=O)c1cc(Cl)ccc1N
6	Cc1cc(C)cc(Sc2c(C(N)=O)[nH]c3ccc(Cl)cc23)c1
1800	CCOC(=O)c1cc2ccccc2n1S(=O)(=O)c1ccccc1[N+](=O)[O-]
1400	CCOC(=O)c1[nH]c2ccccc2c1Sc1ccccc1
> 13000	NNC(=O)c1[nH]c2ccc(Cl)cc2c1Sc1cc(Cl)ccc1N
≥ 200000	CCOC(=O)c1[nH]c2ccccc2c1Sc1cc(Cl)ccc1N
80	CC(C)c1ccc(S(=O)(=O)c2c(C(N)=O)[nH]c3ccc(Cl)cc23)cc1
4	Cc1ccc(S(=O)(=O)c2c(C(N)=O)[nH]c3ccc(Cl)cc23)c(C)c1
0.8	Cc1cc(C)cc(S(=O)(=O)c2c(C(=O)NCCO)[nH]c3ccc(Cl)cc23)c1
8	Cc1ccc(S(=O)(=O)c2c(C(=O)NCCO)[nH]c3ccc(Cl)cc23)c(C)c1
> 200000	CCOC(=O)c1[nH]c2ccccc2c1Sc1ccccc1N
43	Cc1ccc(S(=O)(=O)c2c(C(=O)NCCO)[nH]c3ccc(Cl)cc23)cc1
4800	O=[N+]([O-])c1cc(Cl)ccc1-n1ccc2ccccc21
600	Cc1ccc(Sc2c(C(=O)NNCCO)[nH]c3ccc(Cl)cc23)cc1
> 100000	CCOC(=O)c1cc2ccccc2n1S(=O)(=O)c1ccc(Cl)cc1
> 200000	CC(C)OC(=O)c1cn(S(=O)(=O)c2ccccc2)c2ccc(Cl)cc12
10	O=C(NNCCO)c1[nH]c2ccc(Cl)cc2c1S(=O)(=O)c1ccccc1
5220	O=[N+]([O-])c1ccc(Cl)c(-n2ccc3ccccc32)c1
3	Cc1cccc(S(=O)(=O)c2c(C(=O)NCCO)[nH]c3ccc(Cl)cc23)c1
> 75000	O=S(=O)(c1ccccc1)n1ccc2cc(Cl)ccc21
80	Cc1cccc(Sc2c(C(=O)NCCO)[nH]c3ccc(Cl)cc23)c1
> 31000	CCOC(=O)c1cc2cc(Cl)ccc2n1S(=O)(=O)c1cc(Cl)ccc1[N+](=O)[O-]

EC50 [nM]	Compound
120	Cc1ccc(Sc2c(C(=O)NCCO)[nH]c3ccc(Cl)cc23)cc1
50	Cc1ccc(S(=O)(=O)c2c(C(=O)NN)[nH]c3ccc(Cl)cc23)cc1
80	Cc1ccc(S(=O)(=O)c2c(C(=O)NNCCO)[nH]c3ccc(Cl)cc23)c(C)c1
180	NC(=O)c1[nH]c2ccccc2c1S(=O)(=O)c1ccccc1
> 200000	CCOC(=O)c1cc2cc(Cl)ccc2n1S(=O)(=O)c1ccc(C)cc1
5000	NNC(=O)c1[nH]c2ccc(Cl)cc2c1Sc1ccc(F)cc1
> 32000	NC(=O)c1cn(S(=O)(=O)c2ccccc2)c2ccccc12
190	NNC(=O)c1[nH]c2ccc(Cl)cc2c1S(=O)(=O)c1ccc(Cl)cc1
530	NNC(=O)c1[nH]c2ccccc2c1S(=O)(=O)c1ccccc1
10000	NNC(=O)c1[nH]c2ccc(Cl)cc2c1Sc1ccc(Cl)cc1
100	NC(=O)c1[nH]c2ccc(Cl)cc2c1S(=O)(=O)c1c(Cl)cccc1Cl
9000	NC(=O)c1[nH]c2ccccc2c1Sc1cc(Cl)ccc1N
130	Cc1cc(C)cc(S(=O)(=O)c2c(C(=O)NN)[nH]c3ccc(Cl)cc23)c1
8000	CC(C)(C)c1ccc(Sc2c(C(N)=O)[nH]c3ccc(Cl)cc23)cc1
1	Cc1cccc(S(=O)(=O)c2c(C(N)=O)[nH]c3ccc(Cl)cc23)c1
> 150000	O=S(=O)(c1ccccc1)n1ccc2ccccc21
550	NNC(=O)c1[nH]c2ccc(Cl)cc2c1Sc1ccccc1
2	Cc1cc(C)cc(S(=O)(=O)c2c(C(N)=O)[nH]c3ccc(Br)cc23)c1
> 100000	CCOC(=O)c1cc2ccccc2n1S(=O)(=O)c1cc(Cl)ccc1[N+](=O)[O-]
> 200000	NNC(=O)c1cc2ccccc2n1S(=O)(=O)c1ccccc1
> 200000	CCOC(=O)c1[nH]c2ccc(Cl)cc2c1S(=O)(=O)c1ccccc1N
300	Cc1ccccc1Sc1c(C(N)=O)[nH]c2ccc(Cl)cc12
1	Cc1ccccc1S(=O)(=O)c1c(C(N)=O)[nH]c2ccc(Cl)cc12
320	NNC(=O)c1[nH]c2ccc(Cl)cc2c1S(=O)(=O)c1ccc(F)cc1
3	Cc1ccc(S(=O)(=O)c2c(C(N)=O)[nH]c3ccc(Cl)cc23)cc1
> 450	Cc1ccc(Sc2c(C(N)=O)[nH]c3ccc(Cl)cc23)cc1

Compound	EC50 [nM]
NNC(=O)c1[nH]c2ccc(Cl)cc2c1S(=O)(=O)c1ccccc1	10
Cc1cc(C)cc(S(=O)(=O)c2c(C(N)=O)[nH]c3ccc(Cl)cc23)c1	4
NC(=O)c1[nH]c2ccc(Cl)cc2c1S(=O)(=O)c1ccccc1 [L-737126]	1
